Reference: patent US20230218577A1, “USE OF HEAT SHOCK PROTEIN INHIBITORS FOR THE TREATMENT OF NEURODEVELOPMENTAL DISORDERS” (The Children's Medical Center Corporation, priority 2020, published 2023)

System: Hsp27, Hsp40, Hsp60, Hsp70, Hsp90 expression in Tsc2-sh neurons
Experiment: Western blot of heat shock proteins in Tsc2-sh neurons
Format: cell-based, rat
Conditions: for down-regulating Hsp27 expression: increasing doses for four days DIV 9-13
Text: To investigate the mechanism and explore the pharmacological window by which 17-AGG increases ciliation in Tsc2-knockdown neurons, the heat shock response in these neurons was examined. The heat shock proteins (Hsps) are divided into six families based on their size, and these proteins function in multi-component complexes that are closely inter-related (Chatterjee and Burns, Targeting Heat Shock Proteins in Cancer: A Promising Therapeutic Approach; Int J Mol Sci 18 (2017)). In addition, while most of them are constitutively expressed, some are expressed only under stress (Garrido et al., Heat shock proteins 27 and 70: anti-apoptotic proteins with tumorigenic properties; Cell Cycle 5, 2592-2601 (2006)). Expression levels of Hsp90 and other HSP family members at DIV13 and DIV20 was assessed following four days of treatment with different concentrations of the Hsp90 inhibitor 17-AGG. In the absence of any compound, Tsc2-knockdown neurons had increased levels of the small heat shock protein 27 (Hsp27) with no change in Hsp90, Hsp70, Hsp60 and Hsp40 (FIGS. 5A-L). […] In addition, there was no change observed in Hsp27 expression due to treatment with 17-AGG in Tsc2 knockdown neurons at DIV20, consistent with the lack of effect on cilia at that age (FIGS. 5G-H, FIG. 10F). Inhibition of the Hsp90 pathway by 17-AGG was confirmed by induction of Hsp40 and Hsp70, consistent with the reported release of Hsp90-dependent inhibition on HSF1 (Zou et al., Repression of heat shock transcription factor HSF1 activation by HSP90 (HSP90 complex) that forms a stress-sensitive complex with HSF1; Cell 94, 471-480 (1998)) (FIGS. 5A, C, E, G, K). It was then evaluated whether Hsp27 upregulation was linked to mTORC1 hyper-activation. […] These findings indicate that Hsp27 contributes to the mTORC1-dependent mechanism implicated in defective ciliation under loss of neuronal TSC1/2 activity.
To test whether Hsp27 down-regulation may contribute to restoring ciliation in Tsc2-deficient neurons, Hsp27 was knocked-down by hspB1 gene silencing using lentiviral expression of RFP-tagged Hsp27shRNA (RFP-Hsp27sh) or scrambled shRNA as a control (RFP-C).
The effect of CUDC-305 and NPV-HSP-990 on Hsp27 expression was then tested.
Protein extracts were lysed in 1×SDS (22 mM Tris-HCl pH 6.8, 4% Glycerol, 0.8% SDS, 1.6% β-mercaptoethanol, bromphenol blue) sample buffer, heated to 95° C. for 5 min and stored frozen. Before being subjected to discontinuous gel electrophoresis, equal amounts of all protein lysates were verified by Coomassie gel staining. For immunoblotting, equal amounts of protein lysates were subjected to SDS-PAGE, transferred to Immobilon-P Millipore and incubated in LI-COR blocking solution at RT for 2 hrs. Primary and secondary antibodies were diluted in LI-COR blocking solution to the appropriate concentrations. LI-COR IRDye secondary antibodies were used. All images were acquired using the LI-COR Odyssey Classic imager and associated Image Studio Lite analysis software (version 5.2.5). Quantification of protein expression was performed by densitometry scans of immunoblots using LI-COR Odyssey imaging system.
Western blot quantifications were performed by protein normalization using GAPDH as loading control. Level of phosphorylated proteins was expressed as the ratio of phosphorylated/total level after GAPDH normalization. Low sample size datasets were tested for normality and when appropriate they were analyzed with non-parametric tests. IC50 values were calculated using the nonlinear regression equation “dose-response curves—Inhibition” of GraphPad PRISM. Data were expressed as percent of vehicle-treated Tsc2-sh neurons which were considered 100% and drug's concentrations were transformed to logarithmic 10 scale. EC50 values were calculated using the nonlinear regression equation “dose-response curves—Stimulation” of Prism. […]

[1] = Tsc2-sh neurons, four-day dose curve

## CO[C@H]1C[C@@H]2CC[C@@H](C)[C@@](O)(O2)C(=O)C(=O)N2CCCC[C@H]2C(=O)O[C@H]([C@H](C)C[C@@H]2CC[C@@H](O)[C@H](OC)C2)CC(=O)[C@H](C)/C=C(\C)[C@@H](O)[C@@H](OC)C(=O)[C@H](C)C[C@H](C)/C=C/C=C/C=C/1C [rapamycin]
Tsc2-sh neurons, 20 nM rapamycin between DIV9-13, measured at DIV13
  Hsp27 upregulation: reduced

## COc1cccc(-c2cc(F)ccc2[C@H]2Cc3nc(N)nc(C)c3C(=O)N2)n1 [NPV-HSP-990, (R)-2-amino-7-((R)-4-fluoro-2-(6-methoxypyridin-2-yl)phenyl)-4-methyl-7,8-dihydropyrido[4,3-d]pyrimidin-5(6H)-one]
Tsc2-sh neurons
  down-regulating Hsp27 expression: Neither compound had a significant effect

## C=CCNC1=C2C[C@@H](C)C[C@H](OC)[C@H](O)[C@@H](C)/C=C(\C)[C@H](OC(N)=O)[C@@H](OC)C=C/C=C(\C)C(=O)NC(=CC1=O)C2=O [17-AGG, 3 S,5S,6R,7S,8E,10R,11S,12E,14E)-21-(allylamino)-6-hydroxy-5,11-dimethoxy-3,7,9,15-tetramethyl-16,20,22-trioxo-17-azabicyclo[16.3.1]docosa-8,12,14,18,21-pentaen-10-yl] carbamate]
[1]
  Hsp40 expression: induction
  Hsp70 expression: induction
Tsc2 knockdown cultures at DIV13, four days of 17-AGG ranging from 5-450 nM
  aberrant Hsp27 expression: reduced
Tsc2 knockdown neurons at DIV20, four days of treatment
  Hsp27 expression: no change

## CN(C)c1cc2c(cc1Sc1nc3c(N)nccc3n1CCNCC(C)(C)C)OCO2 [CUDC-305, 4-amino-2-[[6-(dimethylamino)-1,3-benzodioxol-5-yl]thio]-N-(2,2-dimethylpropyl)-1H-imidazo[4,5-c]pyridine-1-ethanamine]
Tsc2-sh neurons
  down-regulating Hsp27 expression: Neither compound had a significant effect
